In brackets after ≈: the same amount, converted by molar mass.
Legend:
[1] = tested on: Pseudomonas aeruginosa; test: Antibacterial activity against mexB and mexY expressing Pseudomonas aeruginosa PA-A1 harboring GyrA T83I, ParC S87L and IS1001 insertion at position 629 in OprD gene by Etest method; format: functional
[2] = tested on: Pseudomonas aeruginosa; test: Antibacterial activity against Pseudomonas aeruginosa PAO1 by Etest method; format: functional
[3] = tested on: Pseudomonas aeruginosa; test: Antibacterial activity against mexB and mexY expressing Pseudomonas aeruginosa PA-A2 harboring GyrA T83I, ParC S87L and IS1001 insertion at position 629 in OprD gene by Etest method; format: functional
[4] = tested on: Pseudomonas aeruginosa; test: Antibacterial activity against mexB and mexY expressing Pseudomonas aeruginosa PA-A3 harboring GyrA T83I, ParC S87L and IS1001 insertion at position 629 in OprD gene by Etest method; format: functional
[5] = tested on: Pseudomonas aeruginosa; test: Antibacterial activity against Pseudomonas aeruginosa PAO1 harboring plasmid pA1 by Etest method; format: functional
[6] = tested on: Pseudomonas aeruginosa; test: Antibacterial activity against Pseudomonas aeruginosa PAO1 harboring plasmid pA1 by Etest in presence of clavulanic acid
[7] = tested on: Pseudomonas aeruginosa; test: Antibacterial activity against Pseudomonas aeruginosa PAO1 by Etest method in presence of Tazobactam; format: functional
[8] = tested on: Pseudomonas aeruginosa; test: Antibacterial activity against mexB and mexY expressing Pseudomonas aeruginosa PA-A1 harboring GyrA T83I, ParC S87L and IS1001 insertion at position 629 in OprD gene by Etest method in presence of Tazobactam; format: functional
[9] = tested on: Pseudomonas aeruginosa; test: Antibacterial activity against mexB and mexY expressing Pseudomonas aeruginosa PA-A2 harboring GyrA T83I, ParC S87L and IS1001 insertion at position 629 in OprD gene by Etest method in presence of Tazobactam; format: functional
[10] = tested on: Pseudomonas aeruginosa; test: Antibacterial activity against mexB and mexY expressing Pseudomonas aeruginosa PA-A3 harboring GyrA T83I, ParC S87L and IS1001 insertion at position 629 in OprD gene by Etest method in presence of Tazobactam; format: functional
[11] = tested on: Pseudomonas aeruginosa; test: Antibacterial activity against Pseudomonas aeruginosa PAO1 harboring plasmid pA1 by Etest method in presence of Tazobactam; format: functional

Molecule | MIC [1] [µg/mL] | MIC [2] [µg/mL] | MIC [3] [µg/mL] | MIC [4] [µg/mL] | MIC [5] [µg/mL] | MIC [6] [µg/mL] | MIC [7] [µg/mL] | MIC [8] [µg/mL] | MIC [9] [µg/mL] | MIC [10] [µg/mL] | MIC [11] [µg/mL]
C[C@@H](O)[C@H]1C(=O)N2C(C(=O)O)=C(SCCNC=N)C[C@H]12 [IMIPENEM ANHYDROUS] | > 32 | 1 (≈ 3.34 µM) | > 32 | > 32 | 8 (≈ 26.7 µM) | 4 | – | – | – | – | –
CCN1CCN(C(=O)N[C@@H](C(=O)N[C@@H]2C(=O)N3[C@@H]2SC(C)(C)[C@@H]3C(=O)O)c2ccccc2)C(=O)C1=O [PIPERACILLIN] | > 256 | 3 (≈ 5.8 µM) | > 256 | > 256 | > 256 | – | 2 | > 256 | > 256 | > 256 | > 256
GENTAMICIN | > 256 | 2 | > 256 | > 256 | – | – | – | – | – | – | –
CO/N=C(\C(=O)N[C@@H]1C(=O)N2C(C(=O)[O-])=C(C[N+]3(C)CCCC3)CS[C@H]12)c1csc(N)n1 [CEFEPIME] | > 256 | – | > 256 | > 256 | > 256 | – | – | – | – | – | –
NC[C@H]1O[C@H](O[C@H]2[C@H](O)[C@@H](O[C@H]3O[C@H](CO)[C@@H](O)[C@H](N)[C@H]3O)[C@H](N)C[C@@H]2N)[C@H](N)C[C@@H]1O [TOBRAMYCIN] | > 256 | 1 (≈ 2.14 µM) | > 256 | > 256 | 16 (≈ 34.2 µM) | – | – | – | – | – | –
O=C(O)c1cn(C2CC2)c2cc(N3CCNCC3)c(F)cc2c1=O [CIPROFLOXACIN] | > 32 | – | > 32 | > 32 | 0.064 (≈ 0.193 µM) | – | – | – | – | – | –
COLISTIN | 2 | 1 | 2 | 2 | 1 | – | – | – | – | – | –
C[C@H]1[C@H](NC(=O)/C(=N\OC(C)(C)C(=O)O)c2csc(N)n2)C(=O)N1S(=O)(=O)O [AZTREONAM] | > 256 | 1.5 (≈ 3.44 µM) | > 256 | > 256 | > 256 | – | – | – | – | – | –
C[C@@H](O)[C@H]1C(=O)N2C(C(=O)O)=C(S[C@@H]3CN[C@H](C(=O)N(C)C)C3)[C@H](C)[C@H]12 [MEROPENEM] | > 32 | 0.25 (≈ 0.652 µM) | > 32 | > 32 | > 32 | – | – | – | – | – | –
NCC[C@H](O)C(=O)N[C@@H]1C[C@H](N)[C@@H](O[C@H]2O[C@H](CN)[C@@H](O)[C@H](O)[C@H]2O)[C@H](O)[C@H]1O[C@H]1O[C@H](CO)[C@@H](O)[C@H](N)[C@H]1O [AMIKACIN] | > 256 | 4 (≈ 6.83 µM) | > 256 | > 256 | > 32 | – | – | – | – | – | –
CC(C)(O/N=C(\C(=O)N[C@@H]1C(=O)N2C(C(=O)[O-])=C(C[n+]3ccccc3)CS[C@H]12)c1csc(N)n1)C(=O)O [CEFTAZIDIME] | > 256 | 1 (≈ 1.83 µM) | > 256 | > 256 | > 256 | – | – | – | – | – | –

Reference: ChEMBL document CHEMBL1649262, “Nosocomial spread of colistin-only-sensitive sequence type 235 Pseudomonas aeruginosa isolates producing the extended-spectrum beta-lactamases GES-1 and GES-5 in Spain” (2009)
